In US20230227466A1, “SUBSTITUTED THIENOPYRIMIDINES THAT INTERACT WITH THE RAS SUPERFAMILY FOR THE TREATMENT OF CANCERS, INFLAMMATORY DISEASES, RASOPATHIES, AND FIBROTIC DISEASE” (SHY Therapeutics, LLC, priority 2020, published 2023):
Like-named read-outs stand apart in the source and are kept apart here.

Experiments:
KRas G12C mutant = target: T1, KRas G12C mutant (Homo sapiens, UniProt P01116, G12C); assay: Ras GTP binding domain inhibition assay (labeled-GTP competition, cell-free)
T1 construct: made in house
Description: (§1) This is a competitive binding assay. It involves the immobilization of a protein on solid phase, interaction with a small molecule drug candidate, and then competitive binding with a labeled native GTP or GDP ligand.
(§2) In theory, the assay is suitable for use with any GTP or GDP binding protein.
(§3) The following method was developed as specific assay for the following proteins: KRas wild type, KRas Q61H mutant, KRas G12C mutant, KRas G12D mutant, Rac-1, and Rho-A.
(§4) The small GTPases proteins: KRas wild type. KRas Q61H mutant, KRas G12C mutant, KRas G12D mutants, Rac-1, and Rho-A were expressed as His-tagged proteins. In addition, the Guanosine nucleotide Exchange Factor (GEF) Sos protein (residues 556-1049) was expressed as a His-tagged protein. In cells, the guanine nucleotide exchange factor Sos protein promotes activation of Ras proteins by stimulating an exchange of GDP for GTP. The inclusion of Sos to the Ras GTP binding domain inhibition assay may be considered as an alternative representation of physiological cellular conditions for evaluating the inhibitory activity of some of the tested small molecules.
(§5) For the assay, all purified small GTPases proteins were diluted in Buffer-I or Buffer-II to a final concentration of 10-30 μg/mL. 200 μL of each diluted protein was added to a nickel-coated 96-well plate and incubated overnight at 4° C. Then the protein solution was discarded and 200 μL of Buffer-I or Buffer-II was added to each well in the presence of 1% DMSO. Compounds to be tested were added to the protein-coated wells at final concentration of 20 μM, and incubated for 3 hours at room temperature with and without 10-30 μg/mL of Sos added to the final hour of the incubation. When performing IC50 measurements a serial dilution of all tested concentrations was added. Then Cy3-GTP or Cy5-GTP was added to each well to a final concentration of 100 nM. The labeled GTP was incubated for 45 minutes at room temperature. Following GTP incubation, wells were washed 3× in Buffer-I or Buffer-II and 200 μL of Buffer-I or Buffer-II was added to each well. Following washes, the amount of bound labeled-GTP was measured using a SpectraMax M3 (Molecular Devices).

KRas G12D mutant = target: T2, KRas G12D mutant (Homo sapiens, UniProt P01116, G12D); assay: as above
T2 construct: made in house
Description: as §1, §2, §3, §4, §5

KRas Q61H mutant = target: T3, KRas Q61H mutant (Homo sapiens, UniProt P01116, Q61H); assay: as above
T3 construct: made in house
Description: as §1, §2, §3, §4, §5

[1] = test system: MIA-PaCa-2 pancreatic cancer cell line (KRAS G12C); assay: Cell proliferation assay (CellTiter 96 Aqueous One); format: cell-based; conditions: Homo sapiens
Experimental: Cell lines: Human tumor-derived cell lines were purchased from American Type Culture Collection. Human tumor-derived pancreatic cancer cell line MIA-PACA2 (having a KRAS G12C mutation) and Panc-1 (having a KRAS G12D mutation), and Human non-small cell lung cancer (NSCLC) cell line A549 (having a KRAS G12S mutation) were grown in complete DMEM-High Glucose. Human colon cancer cell line SW-620 (having a KRAS G12V mutation) was grown in RPMI. All cell lines were supplemented with penicillin (100 U/mL), streptomycin (100 μg/mL), and 10% heat-inactivated FBS at 37° C. in a humidified incubator with 5% CO2.
Method: Cells were plated at 2000 to 5000 cells/well density in 96-wells plate and cultured overnight. Small molecules to be tested were added to the cells in the final concentration of 10 μM in the presence of 0.3% DMSO and 10% FBS, and incubated for 2-4 days at 37° C. in a humidified incubator with 5% CO2. For IC50 value determination, serial dilutions of compounds were added to cells under the same conditions.
Assay: At the end of the incubation period, cell viability was measured using the CellTiter 96® Aqueous One Solution Cell Proliferation Assay according to manufacturer specifications (Promega, Madison, Wis.). The percentage of small molecules inhibition of cellular proliferation was calculated from raw data.

KRas wild type [2] = target: T4, KRas wild type (Homo sapiens, UniProt P01116); assay: Ras GTP binding domain inhibition assay (labeled-GTP competition, cell-free); design: made in house
Description: as §1, §2, §3, §4, §5

Rac-1 [3] = target: T5, Rac-1 (Homo sapiens, UniProt P63000); assay: as above; design: made in house
Description: as §1, §2, §3, §4, §5

Rho-A [4] = target: T6, Rho-A (Homo sapiens, UniProt P61586); assay: as above; design: made in house
Description: as §1, §2, §3, §4, §5

[5] = target: GTP binding domain of Ras (Homo sapiens, UniProt P01112); conditions: literature (Feuerstein 1987; John 1990); cited from earlier work
K-Ras (G12C) [6] = target: T7, K-Ras (G12C) (Homo sapiens, UniProt P01116, G12C); assay: MicroScale Thermophoresis (MST) GTP affinity; conditions: read-out: MST GTP affinity for binding domain
Description: (§6) As disclosed in International Application No. PCT/US2018/038613 and U.S. patent application Ser. No. 16/013,872, the affinity of GTP for the GTP binding domain of K-Ras utilizing a Scintillation Proximity Assay (SPA) and MicroScale Thermophoresis (MST) has been measured. These methods were not available when Wittinghofer and colleagues undertook their studies.
(§7) This therefore led to the novel, unanticipated conclusion that compounds such as small molecules could be discovered that would bind to a Ras GTP binding domain and compete with the binding of GTP to Ras.
(§8) See Khawaja et al., “Scintillation proximity assay in lead discovery”, Expert Opin. Drug Discov., 2008 November; 3(11):1267-80 regarding SPA procedures. See the following references regarding MST technology: Wienken et al., Nature Communications (2010), Protein binding assays in biological liquids using MicroScale Thermophoresis; Jerabek-Willemsen et al., ASSAY and Drug Development Technologies (2011), Molecular interaction studies using MicroScale Thermophoresis; Lin et al., Cell (2012), Inhibition of basal FGF receptor signaling by dimeric Grb2; Seidel et al., Angewandte Chemie (2012), Label-Free MicroScale Thermophoresis discriminates sites and affinity of protein-ligand binding; Seidel et al., Methods (2012), MicroScale Thermophoresis quantifies biomolecular interactions under previously challenging conditions; Parker & Newstead, Nature (2014), Molecular basis of nitrate uptake by the plant nitrate transporter NRT1.1; and Jerabek-Willemsen et al., Journal of Molecular Structure (2014), MicroScale Thermophoresis: Interaction analysis and beyond.

K-Ras (G12D) [7] = target: T8, K-Ras (G12D) (Homo sapiens, UniProt P01116, G12D); assay: MicroScale Thermophoresis (MST) GTP affinity; conditions: read-out: MST GTP affinity for binding domain
Description: as §6, §7, §8

K-Ras (Q61H) [8] = target: T9, K-Ras (Q61H) (Homo sapiens, UniProt P01116, Q61H); assay: MicroScale Thermophoresis (MST) GTP affinity; conditions: read-out: MST GTP affinity for binding domain
Description: as §6, §7, §8

KRas wild type [9] = target: T4, KRas wild type; assay: MicroScale Thermophoresis (MST) GTP affinity; conditions: read-out: MST GTP affinity for binding domain
Description: as §6, §7, §8

Rac-1 [10] = target: T5, Rac-1; assay: MicroScale Thermophoresis (MST) GTP affinity; conditions: read-out: MST GTP affinity for binding domain
Description: as §6, §7, §8

Rho-A [11] = target: T6, Rho-A; assay: MicroScale Thermophoresis (MST) GTP affinity; conditions: read-out: MST GTP affinity for binding domain
Description: as §6, §7, §8

K-Ras (G12C) [12] = target: T7, K-Ras (G12C); assay: Scintillation Proximity Assay (SPA) GTP affinity; conditions: read-out: SPA GTP affinity for binding domain
Description: as §6, §7, §8

K-Ras (G12D) [13] = target: T8, K-Ras (G12D); assay: Scintillation Proximity Assay (SPA) GTP affinity; conditions: read-out: SPA GTP affinity for binding domain
Description: as §6, §7, §8

K-Ras (Q61H) [14] = target: T9, K-Ras (Q61H); assay: Scintillation Proximity Assay (SPA) GTP affinity; conditions: read-out: SPA GTP affinity for binding domain
Description: as §6, §7, §8

KRas wild type [15] = target: T4, KRas wild type; assay: Scintillation Proximity Assay (SPA) GTP affinity; conditions: read-out: SPA GTP affinity for binding domain
Description: as §6, §7, §8

Rac-1 [16] = target: T5, Rac-1; assay: Scintillation Proximity Assay (SPA) GTP affinity; conditions: read-out: SPA GTP affinity for binding domain
Rho-A [17] = target: T6, Rho-A; assay: Scintillation Proximity Assay (SPA) GTP affinity; conditions: read-out: SPA GTP affinity for binding domain
[18] = target: K-Ras GTP binding domain (wild type and mutant K-Ras); assay: SPA and MST studies, GTP affinity across K-Ras forms
Description: as §7, §8

Rac-1 and Rho-A = assay: SPA and MST studies, GTP affinity for Rho subfamily members; conditions: read-out: affinity of GTP for the binding domain of Rac-1 and Rho-A members of the Rho subfamily
Description: as §7, §8

[19] = with SOS, read-out: KRas G12C mutant + SOS: % inh.
[20] = without SOS, read-out: KRas G12C mutant: % inh.
[21] = with SOS, read-out: KRas G12D mutant + SOS: % inh.
[22] = without SOS, read-out: KRas G12D mutant: % inh.
[23] = with SOS, read-out: KRas Q61H mutant + SOS: % inh.
[24] = without SOS, read-out: KRas Q61H mutant: % inh.
[25] = with SOS, read-out: KRas wild type + SOS: % inh.
[26] = without SOS, read-out: KRas wild type: % inh.
[27] = without SOS, read-out: Rac-1: % inh.
[28] = without SOS, read-out: Rho-A: % inh.

| Structure (SMILES) | inhibition at 20 µM (KRas G12C mutant; [19]) | inhibition at 20 µM (KRas G12C mutant; [20]) | inhibition at 20 µM (KRas G12D mutant; [21]) | inhibition at 20 µM (KRas G12D mutant; [22]) | inhibition at 20 µM (KRas Q61H mutant; [23]) | inhibition at 20 µM (KRas Q61H mutant; [24]) | inhibition at 20 µM (KRas wild type [2]; [25]) | inhibition at 20 µM (KRas wild type [2]; [26]) | inhibition at 20 µM (Rac-1 [3]; [27]) | inhibition at 20 µM (Rho-A [4]; [28]) | affinity for the GTP binding domain of Ras [5] | further results |
| --- | --- | --- | --- | --- | --- | --- | --- | --- | --- | --- | --- | --- |
| Oc1nc(-c2ccccn2)nc2c(-c3ncccc3F)csc12 [Compound 27, 7-(3-Fluoropyridin-2-yl)-2-(pyridin-2-yl)thieno[3,2-d]pyrimidin-4-ol] | 76 to 100% | 51 to 75% | 76 to 100% | 51 to 75% | 76 to 100% | 51 to 75% | 76 to 100% | 76 to 100% | 76 to 100% | 76 to 100% |  | IC50 (KRas Q61H mutant; with SOS): 1000 to 4990 nM; IC50 ([1]; MIA PaCa-2, MIA PaCa-2): 1 to 4.99 µM; inhibition at 10 µM ([1]; 10 μM, MIA PaCa-2, read-out: % inh cell proliferation (10 μM) in MIA PaCa-2): 76 to 100%; inhibition at 20 µM (Rac-1 [3]; with SOS, read-out: Rac-1 + SOS: % inh.): 76 to 100%; inhibition at 20 µM (Rho-A [4]; with SOS, read-out: Rho-A + SOS: % inh.): 76 to 100% |
| Oc1nc(-c2ccc3[nH]ncc3n2)nc2c(-c3ccccn3)csc12 [Compound 93, 2-(1H-Pyrazolo[4,3-b]pyridin-5-yl)-7-(pyridin-2-yl)thieno[3,2-d]pyrimidin-4-ol] | 1 to 25% | 26 to 50% | 1 to 25% | 26 to 50% | 1 to 25% | 1 to 25% | 0% | 26 to 50% | 1 to 25% | 51 to 75% |  |  |
| Nc1nc2c(ncn2[C@@H]2O[C@H](COP(=O)(O)OP(=O)(O)O)[C@@H](O)[C@H]2O)c(=O)[nH]1 [GDP] |  |  |  |  |  |  |  |  |  |  | single to double digit picomolar |  |
| Nc1nc2c(ncn2[C@@H]2O[C@H](COP(=O)(O)OP(=O)(O)OP(=O)(O)O)[C@@H](O)[C@H]2O)c(=O)[nH]1 [GTP] |  |  |  |  |  |  |  |  |  |  | single to double digit picomolar | Kd (K-Ras (G12C) [6]): 207 ± 46 nM; Kd (K-Ras (G12D) [7]): 244 ± 12 nM; Kd (K-Ras (Q61H) [8]): 157 ± 21 nM; Kd (KRas wild type [9]): 463 ± 2 nM; Kd (Rac-1 [10]): 166 ± 10 nM; Kd (Rho-A [11]): 130 ± 5 nM; Kd (K-Ras (G12C) [12]): 258 ± 18 nM; Kd (K-Ras (G12D) [13]): 270 ± 15 nM; Kd (K-Ras (Q61H) [14]): 118 ± 11 nM; Kd (KRas wild type [15]): 243 ± 15 nM; Kd (Rac-1 [16]): 151 ± 14 nM; Kd (Rho-A [17]): 129 ± 12 nM; Kd [18]: 100 to 465 nM; Kd (Rac-1 and Rho-A): 120 to 170 nM |
